Like-named read-outs stand apart in the source and are kept apart here.
How the values were obtained:
chondrocytes = test: Chondrocyte Cell Culture Matrix Breakdown Assay (35S release, rhIL-1α stimulated); type: cell-based, calf; conditions: Bos taurus, Chondrocyte; for inhibition at 50 µM: read-out: percent inhibition, Cell Culture
Description: A cell culture assay was used to measure the ability of compounds to slow the degradation of the extracellular matrix by a metalloproteinase. This assay measured the amount ^35 S released from chondrocytes grown in a media with ^35 S labeled sodium sulfate. The cell culture assay was carried out as follows:
Two or three 1 to 3 week old calf joints were obtained from an abattoir. The proximal end of the shank was at about 4-5" long to facilitate immobilization in the holder. The joint was kept cool and transported on ice. The exterior of the intact joints was washed well with a suitable anti-microbial soap, rinsed clean with warm water, rinsed in betadine and then finally rinsed with 70% ethanol. Up to this point all steps were done in a manner to ensure that the joint was kept as clean as possible. All subsequent steps were performed in a sterile field (i.e., in a Edgeguard laminar flow tissue culture hood). The joint was immobilized and the synovial fluid was aspirated with a needle and syringe. The joint was then cut open to expose the articular cartilage using a #21 scalpel. Using locking hemostats, forceps and a #15 scalpel, the cartilage was excised in full thickness pieces. Care was taken not to cut too deep because bleeding would have occurred if the subchondral bone, was penetrated. The cartilage pieces were placed into a 50 mL centrifuge tube containing 25 mL of Delbecco's phosphate buffered saline (D-PBS) supplemented with 1% antibiotic solution (penicillin, streptomycin and fungizone; GIBCO/BRL). The slices from each joint were then placed into separate 50 mL centrifuge tubes. The D-PBS was decanted and replaced with 25 mL of fresh D-PBS supplemented with antibiotics and subsequently agitated gently.
The cartilage pieces were transferred to a fresh 50 mL centrifuge tube and rinsed once more with 25 mL of D-PBS minus antibiotics. An enzymatic digestion solution containing 1 mg/mL of hyaluronidase in serum-free 1:1 DMEM/Ham's F-12 (DMEM/F12) was prepared. This solution was filter sterilized with […] Milex--GV filter and kept on ice until ready to use. The cartilage pieces were digested with approximately 5 mL of hyaluronidase solution per joint for 2×15 minutes at 37° C. in the 50 mL centrifuge tube with gentle agitation at the 15 minute mark. This procedure removed residual hyaluronic acid from the surface of the chips. The enzymatic digestion solution was then aspirated and the cartilage pieces were rinsed with 25 mL of D-PBS.
A second enzymatic digestion solution containing 2.5 mg trypsin and 2 mg collagenase P per mL serum-free DMEM/F12 was prepared. This solution was also filter sterilized with a […] Millex--GV filter and kept on ice until ready to use. The cartilage pieces were digested with approximately 5 mL of trypsin: collagenase solution per joint for 2×15 minutes at 37° C. in the 50 mL centrifuge tube with gentle agitation at the 15 minute mark. This procedure removed the synovial fibroblasts and any adherent connective tissue from the surface of the chips. The enzymatic digestion solution was then carefully removed and saved and the cartilage pieces were rinsed with 25 mL of D-PBS.
A third enzymatic solution containing 2 mgs of collagenase P (BMB) per mL serum-free DMEM/F12 was prepared. This solution was filter sterilized with a […] Millex--GV filter and kept on ice until ready to use. The pre-digested cartilage pieces were finally digested with approximately 20 mL of enzymatic digestion solution per joint for 5-6 hours at 37° C. in a Bellco stirring digestion flask, at which point the cartilage was fully digested away.
The enzymes in the synovial fibroblast and chondrocyte digest were neutralized by addition of an equal volume of DMEM/F12 supplemented with 5% fetal bovine serum. Fibroblasts were plated in DMEM at a cellular density of 6.6×10^3 cells per cm^2. […]

[1] = tested on: bovine cartilage explants; test: Bovine Cartilage Explant Assay (35S-GAG release, rhIL-1α stimulated; tissue culture); type: cell-based; conditions: Bos taurus, read-out: percent inhibition of extracellular matrix damage, Tissue Culture
Text: A tissue culture assay was used to measure the ability of the compounds of the present invention to slow the degradation of the extracellular matrix by metalloproteinases. This assay measured the amount of ^35 S-glycosaminoglycan (^35 S-GAG) released from labeled bovine cartilage explants.
Knee joints from a 1 to 3 week old calf were obtained immediately after sacrifice from the Abattoir and then transported on ice. The intact joints were washed well with tap water and soaked in 50% (v/v) Povidine iodine solution, obtained from Burre National, Inc., Baltimore, Md. All subsequent steps were performed in a laminar flow tissue culture hood using standard sterile technique. The joint was immobilized in a shank holder and the joint capsule was cut open to expose the articular cartilage. Cartilage explant plugs, approximately 15 mg wet weight, were removed from the flat articulating surfaces in the lower-most region of the knee joint using a sterile steel cork-borer and collected in a 250 mL roller bottle containing about 100 mL fresh Delbecco's minimum essential medium (DMEM), obtained from Gibco BRC, Life Technologies, Gaithersburg, Md., containing 4.5 g/1 (D)-glucose and (L)-glutamine, without sodium pyruvate. The fresh media also contained enough Hepes buffer and sodium bicarbonate such that the pH was about 7.4. The media was then further supplemented just before use with 100 units Penicillin, 100 μg Streptomycin, and 50 μg (L)-ascorbic acid per mL of medium.
Once collected, the explant plugs were washed four times with 50 mL fresh DMEM. The plugs were then placed in the incubator for a minimum of 1 hour to equilibrate, before proceeding to make disks from the articulating surface of each plug. A 1 mm thick disk was sliced from individual plugs from the end that was the articulating surface of the joint. The plug was held steady in the sterile template (4 mm diameter×1.5 mm deep) using sterile forceps. A scalpel blade was used to carefully slice off the disk. Only the superficial articulating surface responded well in culture.
Individual disks obtained were transferred to a tissue culture flask containing about 100 mL fresh media. The flask containing the disks was placed in an incubator at 37° C. (with 5% CO2, 95% air) and allowed to equilibrate overnight and at least one additional day before labeling. When ready to label, the old media was replaced with 50 mL fresh media containing about 500 μCi ^35 S-Sodium Sulfate. The plugs were labeled in bulk for about 48 hours. The next morning, the "hot" media was removed and replaced with fresh "cold" media. The disks were again allowed to equilibrate overnight before being used for actual experiments.
The media in which the disks were stored was changed immediately prior to performing the assay. The disks were then returned to the incubator until the test media and the two control media had been prepared. The test media consisted of a bile acid or bile acid derivative (50 μM) being tested for its ability to inhibit extracellular matrix degradation and concomitant recombinant human Interleukin rhIL-1α (5 ng/mL) in fresh DMEM solution. The control media were identical to the test media, except that the first control media lacked rhIL-1α and the second control media lacked an inhibitor, i.e. a bile acid or bile acid derivative. 250 μL of each of the test and control media were transferred to separate 96-well TC plates. Flamed forceps were used to transfer a disk from the incubator to each 96-well TC plates that had been filled with either the test media or one of the two control media.
The TC plates were then placed in the incubator and cultured for 3-4 days (initial incubation with rhIL-1α alpha takes at least 3 days to stimulate endogenous metalloproteinases). A 50 μL aliquot of media from each TC plate was saved and counted. The rest of the media was removed with a suction device.
The cartilage disks from each TC plate were also saved for counting. […]

[2] = at 50 μM, rhIL-1α 1 ng/ml, 22-24 hours
[3] = at 50 μM, rhIL-1α 5 ng/mL, 3-4 days

SMILES	inhibition at 50 µM (chondrocytes; [2]) [%]	inhibition at 50 µM [1, 3] [%]	inhibition at 50 µM (chondrocytes) [%]	inhibition at 50 µM [1] [%]	IC50 (chondrocytes; rhIL-1α 1 ng/ml, 22-24 hours) [µM]
C[C@H](CCC(=O)O)[C@H]1CC[C@H]2[C@@H]3CC[C@@H]4C[C@H](O)CC[C@]4(C)[C@H]3CC[C@]12C [Compound 1, Lithocholic acid, reference compound]	95	68	–	–	–
C[C@H](CCC(=O)NCCC[N+](C)(C)CCCS(=O)(=O)[O-])[C@H]1CC[C@H]2[C@@H]3[C@H](O)C[C@@H]4C[C@H](O)CC[C@]4(C)[C@H]3C[C@H](O)[C@]12C [Compound 8, 3-[(3-cholamidopropyl)dimethylammonio)-1-propanesulfonate, reference compound]	–	–	2	-120	–
CC(C)C[C@H](NC(=O)CC[C@@H](C)[C@H]1CC[C@H]2[C@@H]3CC[C@@H]4C[C@H](O)CC[C@]4(C)[C@H]3CC[C@]12C)C(=O)NO [Compound 9, Lithocholyl-(L)-Leucine Hydroxamic Acid]	43	84	–	–	–
CC(C)C[C@H](NC(=O)CC[C@@H](C)[C@H]1CC[C@H]2[C@@H]3[C@H](O)C[C@@H]4C[C@H](O)CC[C@]4(C)[C@H]3CC[C@]12C)C(=O)NO [Compound 10, Chenodeoxycholyl-(L)-Leucine Hydroxamic Acid]	–	85	–	–	80
C[C@H](CCC(=O)NOCc1ccccc1)[C@H]1CC[C@H]2[C@@H]3[C@H](O)C[C@@H]4C[C@H](O)CC[C@]4(C)[C@H]3CC[C@]12C [Compound 12, Chenodeoxycholyl-O-Benzylhyroxamate]	64	6	–	–	–
C[C@H](CCC(=O)NO)[C@H]1CC[C@H]2[C@@H]3CC[C@@H]4C[C@H](O)CC[C@]4(C)[C@H]3CC[C@]12C [Compound 13, Lithocholylhydroxamic Acid]	–	44	–	–	20
C[C@H](CCC(=O)N[C@@H](Cc1ccccc1)C(=O)NO)[C@H]1CC[C@H]2[C@@H]3CC[C@@H]4C[C@H](O)CC[C@]4(C)[C@H]3CC[C@]12C [Compound 15, Lithocholyl-(L)-Phenylalanine Hydroxamic Acid]	38	54	–	–	–
C[C@H](CCC(=O)N[C@@H](Cc1ccccc1)C(=O)NO)[C@H]1CC[C@H]2[C@@H]3[C@H](O)C[C@@H]4C[C@H](O)CC[C@]4(C)[C@H]3CC[C@]12C [Compound 16, Chenodeoxycholyl-(L)-Phenylalanine Hydroxamic Acid]	85	94	–	–	–
CCOC(=O)[C@H](CS)NC(=O)[C@H](Cc1ccccc1)NC(=O)CC[C@@H](C)[C@H]1CC[C@H]2[C@@H]3CC[C@@H]4C[C@H](O)CC[C@]4(C)[C@H]3CC[C@]12C [Compound 19, Lithocholyl-(L)-Phenylalanyl-(L)-Cysteine Ethyl Ester]	4	32	–	–	–
C[C@H](CCC(=O)N[C@@H](Cc1ccccc1)C(=O)NC1CCSC1=O)[C@H]1CC[C@H]2[C@@H]3CC[C@@H]4C[C@H](O)CC[C@]4(C)[C@H]3CC[C@]12C (some centres unmarked) [Compound 20, Lithocholyl-Phenylalanylhomocysteine Thiolactone]	16	-13	–	–	–
